Laboratory results as given in US20250034144A1, “NEW CRYSTAL FORM OF ERTAPENEM SODIUM AND PREPARATION METHOD THEREFOR” (ASYMCHEM LABORATORIES (TIANJIN) CO., LTD., priority 2021, published 2025).

Assays:
[1] = Fluidity related test (densities, Carr index, Hausner ratio, angle of repose); format: physicochemical
Experimental: (Two) A fluidity related test was carried out on the crystal form A product of ertapenem sodium, the crystal form B product, the crystal form C product, the crystal form D product, the crystal form E product and the amorphous product of ertapenem sodium. [formula] [formula] [table]

[2] = Stability of the product at −18° C. (purity and content over 12 months); format: physicochemical
Experimental: Data of the stability of the product at −18° C. are shown in Table 2 below: […]

C[C@@H](O)[C@H]1C(=O)N2C(C(=O)[O-])=C(S[C@@H]3CN[C@H](C(=O)Nc4cccc(C(=O)O)c4)C3)[C@H](C)[C@H]12.[Na+] [Crystal form B, ertapenem sodium]
Angle of repose [1]: 41° | Bulk density [1]: 0.63 g/mL | Carr index [1]: 20% | Hausner ratio [1]: 1.25 | Tap density [1]: 0.79 g/mL

C[C@@H](O)[C@H]1C(=O)N2C(C(=O)[O-])=C(S[C@@H]3CN[C@H](C(=O)Nc4cccc(C(=O)O)c4)C3)[C@H](C)[C@H]12.[Na+] [Crystal form D, ertapenem sodium]
Angle of repose [1]: 47° | Bulk density [1]: 0.64 g/mL | Carr index [1]: 21% | Hausner ratio [1]: 1.27 | Tap density [1]: 0.81 g/mL

C[C@@H](O)[C@H]1C(=O)N2C(C(=O)[O-])=C(S[C@@H]3CN[C@H](C(=O)Nc4cccc(C(=O)O)c4)C3)[C@H](C)[C@H]12.[Na+] [Crystal form E, ertapenem sodium]
Angle of repose [1]: 46° | Bulk density [1]: 0.66 g/mL | Carr index [1]: 20% | Hausner ratio [1]: 1.26 | Tap density [1]: 0.83 g/mL

C[C@@H](O)[C@H]1C(=O)N2C(C(=O)[O-])=C(S[C@@H]3CN[C@H](C(=O)Nc4cccc(C(=O)O)c4)C3)[C@H](C)[C@H]12.[Na+] [Crystal form F, ertapenem sodium]
Angle of repose [1]: 23° | Bulk density [1]: 0.64 g/mL | Carr index [1]: 10% | Hausner ratio [1]: 1.11 | Tap density [1]: 0.71 g/mL | Fluidity (in words) ([1]; compared with crystal forms A-E and the amorphous product): better fluidity

C[C@@H](O)[C@H]1C(=O)N2C(C(=O)[O-])=C(S[C@@H]3CN[C@H](C(=O)Nc4cccc(C(=O)O)c4)C3)[C@H](C)[C@H]12.[Na+] [Crystal form C, ertapenem sodium]
Angle of repose [1]: 43° | Bulk density [1]: 0.63 g/mL | Carr index [1]: 19% | Hausner ratio [1]: 1.24 | Tap density [1]: 0.78 g/mL

C[C@@H](O)[C@H]1C(=O)N2C(C(=O)[O-])=C(S[C@@H]3CN[C@H](C(=O)Nc4cccc(C(=O)O)c4)C3)[C@H](C)[C@H]12.[Na+] [Example 2, ertapenem sodium]
Content ([2]; 0 month): 99.1% | Purity ([2]; 0 month): 99.2% | Content ([2]; 1 month): 99.1% | Purity ([2]; 1 month): 99.2% | Content ([2]; 2 months): 99.1% | Purity ([2]; 2 months): 99.2% | Content ([2]; 3 months): 99.1% | Purity ([2]; 3 months): 99.2% | Content ([2]; 4 months): 99.1% | Purity ([2]; 4 months): 99.2% | Content ([2]; 5 months): 99.0% | Purity ([2]; 5 months): 99.1% | Content ([2]; 6 months): 99.0% | Purity ([2]; 6 months): 99.1% | Content ([2]; 7 months): 99.0% | Purity ([2]; 7 months): 99.1% | Content ([2]; 8 months): 99.0% | Purity ([2]; 8 months): 99.1% | Content ([2]; 9 months): 99.0% | Purity ([2]; 9 months): 99.1% | Content ([2]; 10 months): 99.0% | Purity ([2]; 10 months): 99.0% | Content ([2]; 11 months): 99.0% | Purity ([2]; 11 months): 99.0% | Content ([2]; 12 months): 99.0% | Purity ([2]; 12 months): 99.0% | Stability of the crystal form product (in words) ([2]; 12 months): very stable

C[C@@H](O)[C@H]1C(=O)N2C(C(=O)[O-])=C(S[C@@H]3CN[C@H](C(=O)Nc4cccc(C(=O)O)c4)C3)[C@H](C)[C@H]12.[Na+] [Amorphous, ertapenem sodium]
Angle of repose [1]: 47° | Bulk density [1]: 0.63 g/mL | Carr index [1]: 20% | Hausner ratio [1]: 1.25 | Tap density [1]: 0.79 g/mL

C[C@@H](O)[C@H]1C(=O)N2C(C(=O)[O-])=C(S[C@@H]3CN[C@H](C(=O)Nc4cccc(C(=O)O)c4)C3)[C@H](C)[C@H]12.[Na+] [Crystal form A, ertapenem sodium]
Angle of repose [1]: 43° | Bulk density [1]: 0.64 g/mL | Carr index [1]: 22% | Hausner ratio [1]: 1.28 | Tap density [1]: 0.82 g/mL

C[C@@H](O)[C@H]1C(=O)N2C(C(=O)[O-])=C(S[C@@H]3CN[C@H](C(=O)Nc4cccc(C(=O)O)c4)C3)[C@H](C)[C@H]12.[Na+] [Example 1, ertapenem sodium]
Content ([2]; 0 month): 99.2% | Purity ([2]; 0 month): 99.4% | Content ([2]; 1 month): 99.2% | Purity ([2]; 1 month): 99.4% | Content ([2]; 2 months): 99.2% | Purity ([2]; 2 months): 99.4% | Content ([2]; 3 months): 99.2% | Purity ([2]; 3 months): 99.4% | Content ([2]; 4 months): 99.2% | Purity ([2]; 4 months): 99.3% | Content ([2]; 5 months): 99.1% | Purity ([2]; 5 months): 99.3% | Content ([2]; 6 months): 99.1% | Purity ([2]; 6 months): 99.3% | Content ([2]; 7 months): 99.1% | Purity ([2]; 7 months): 99.3% | Content ([2]; 8 months): 99.1% | Purity ([2]; 8 months): 99.3% | Content ([2]; 9 months): 99.1% | Purity ([2]; 9 months): 99.3% | Content ([2]; 10 months): 99.1% | Purity ([2]; 10 months): 99.3% | Content ([2]; 11 months): 99.0% | Purity ([2]; 11 months): 99.2% | Content ([2]; 12 months): 99.0% | Purity ([2]; 12 months): 99.2% | Stability of the crystal form product (in words) ([2]; 12 months): very stable
